The values that follow come from the supplement of paper PMC10307832.

Common to all, as to experiment: relative viability (nuclei count vs DMSO), 5 days (fraction); higher = more cells survive
Compound in assay [1]: C1COCCN1C2=NC(=NC3=C2OC4=C3C=CC=N4)C5=CC(=CC=C5)NC(=O)C6=CN=C(C=C6)N + CC(=O)c1c(C)c2cnc(Nc3ccc(N4CCNCC4)cn3)nc2n(C2CCCC2)c1=O [Palbociclib] (partner 0.5 µM)
In short, it runs like this: (§1)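 Relative viability divides the nuclei count in treated wells by that in vehicle wells. Lung cancer cell lines were seeded in 1536-well plates, dosed by pin tool the next day, and fixed and stained after 5 days in one step with final 0.05% Triton X-100, 1% formaldehyde and 1 ug/ml Hoechst. Dosing was a single drug or a fixed anchor-drug dose plus five library-drug doses (not always all listed) in √10 steps, and values are medians of duplicate plates imaged at 4×.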

Compound in assay [2]: C1COCCN1C2=NC(=NC3=C2OC4=C3C=CC=N4)C5=CC(=CC=C5)NC(=O)C6=CN=C(C=C6)N + Cc1nc(Nc2ncc(C(=O)Nc3c(C)cccc3Cl)s2)cc(N2CCN(CCO)CC2)n1 [Dasatinib] (partner 0.075 µM)
Put shortly:
as §1

Compound in the assay “SGI-1776 + OSI-027”: CN1CCC(CNc2ccc3ncc(-c4cccc(OC(F)(F)F)c4)n3n2)CC1 [SGI-1776] + COc1cccc2cc(-c3nc([C@H]4CC[C@H](C(=O)O)CC4)n4ncnc(N)c34)[nH]c12 [OSI-027] (partner 0.5 µM)
Put shortly:
as §1

Compound in the assay “SGI-1776 + AZD7762”: CN1CCC(CNc2ccc3ncc(-c4cccc(OC(F)(F)F)c4)n3n2)CC1 [SGI-1776] + NC(=O)Nc1cc(-c2cccc(F)c2)sc1C(=O)N[C@H]1CCCNC1 [AZD7762] (partner 0.2 µM)
In short, it runs like this:
as §1

On to NCI-H2405, for which the relative viability in assay [1] (first compound 0.02 µM) worked out at 0.498; in assay [1] (first compound 0.06325 µM), 0.566; in assay [1] (first compound 0.2 µM), 0.499; in assay [1] (first compound 0.6325 µM), 0.48; in assay [1] (first compound 2 µM) it was 0.359; in assay [2] (first compound 0.02 µM), 0.209. Also, the relative viability in assay [2] (first compound 0.06325 µM) stood at 0.229; in assay [2] (first compound 0.2 µM), 0.223; in assay [2] (first compound 0.6325 µM) it was 0.215; in assay [2] (first compound 2 µM) it was 0.213; with SGI-1776 + OSI-027 (first compound 0.08 µM) it was 0.643; in the assay with SGI-1776 + OSI-027 (first compound 0.8 µM), 0.659. Further, the relative viability stood at 0.549 with SGI-1776 + OSI-027 (first compound 2.53 µM); 0.568 with SGI-1776 + OSI-027 (first compound 8 µM); 0.706 in the assay with SGI-1776 + AZD7762 (first compound 0.08 µM); 0.728 in the assay with SGI-1776 + AZD7762 (first compound 0.8 µM); 0.57 with SGI-1776 + AZD7762 (first compound 2.53 µM); 0.608 in the assay with SGI-1776 + AZD7762 (first compound 8 µM).
On to NCI-H3122, for which the relative viability was 0.182 in assay [1] (first compound 0.02 µM); 0.187 in assay [1] (first compound 0.06325 µM); 0.164 in assay [1] (first compound 0.2 µM); 0.186 in assay [1] (first compound 0.6325 µM); 0.16 in assay [1] (first compound 2 µM); 0.796 in assay [2] (first compound 0.02 µM). In addition, the relative viability in assay [2] (first compound 0.06325 µM) is 0.786; in assay [2] (first compound 0.2 µM), 0.787; in assay [2] (first compound 0.6325 µM) it was 0.868; in assay [2] (first compound 2 µM) it was 0.657; with SGI-1776 + OSI-027 (first compound 0.08 µM) it was 0.988; with SGI-1776 + OSI-027 (first compound 0.8 µM), 0.967. Besides, the relative viability with SGI-1776 + OSI-027 (first compound 2.53 µM) came to 0.926; with SGI-1776 + OSI-027 (first compound 8 µM) it was 0.862; with SGI-1776 + AZD7762 (first compound 0.08 µM), 0.941; with SGI-1776 + AZD7762 (first compound 0.8 µM), 0.935; in the assay with SGI-1776 + AZD7762 (first compound 2.53 µM), 0.938; in the assay with SGI-1776 + AZD7762 (first compound 8 µM), 1.
Consider PC-3 [JPC-3], for which the relative viability came out at 0.506 in assay [1] (first compound 0.02 µM); 0.512 in assay [1] (first compound 0.06325 µM); 0.592 in assay [1] (first compound 0.6325 µM); 0.495 in assay [1] (first compound 2 µM); 1.18 in assay [2] (first compound 0.02 µM); 1.08 in assay [2] (first compound 0.06325 µM). Also, the relative viability is 1.02 in assay [2] (first compound 0.2 µM); 0.818 in assay [2] (first compound 0.6325 µM); 0.629 in assay [2] (first compound 2 µM); 0.791 with SGI-1776 + OSI-027 (first compound 0.08 µM); 0.818 with SGI-1776 + OSI-027 (first compound 0.8 µM); 0.74 with SGI-1776 + OSI-027 (first compound 2.53 µM). For the same cell line, the relative viability was determined as 0.672 with SGI-1776 + OSI-027 (first compound 8 µM); 0.921 in the assay with SGI-1776 + AZD7762 (first compound 0.08 µM); 0.872 with SGI-1776 + AZD7762 (first compound 0.8 µM); 0.685 with SGI-1776 + AZD7762 (first compound 2.53 µM); 0.609 with SGI-1776 + AZD7762 (first compound 8 µM).
Take PC-14: the relative viability in assay [1] (first compound 0.02 µM) was 0.482; in assay [1] (first compound 0.06325 µM), 0.562; in assay [1] (first compound 0.2 µM) it was 0.562; in assay [1] (first compound 0.6325 µM) it was 0.284; in assay [1] (first compound 2 µM) it was 0.189; in assay [2] (first compound 0.02 µM), 0.229. Further, the relative viability in assay [2] (first compound 0.06325 µM) is 0.229; in assay [2] (first compound 0.2 µM), 0.218; in assay [2] (first compound 0.6325 µM), 0.138; in assay [2] (first compound 2 µM), 0.175; with SGI-1776 + OSI-027 (first compound 0.08 µM), 0.857; with SGI-1776 + OSI-027 (first compound 0.8 µM), 0.945. Moreover, the relative viability with SGI-1776 + OSI-027 (first compound 2.53 µM) worked out at 0.671; with SGI-1776 + OSI-027 (first compound 8 µM), 0.0734; with SGI-1776 + AZD7762 (first compound 0.08 µM), 0.474; with SGI-1776 + AZD7762 (first compound 0.8 µM), 0.352; with SGI-1776 + AZD7762 (first compound 2.53 µM), 0.27; with SGI-1776 + AZD7762 (first compound 8 µM), 0.146.
Turning to RERF-LC-KJ, the relative viability in assay [1] (first compound 0.02 µM) is 1.04; in assay [1] (first compound 0.06325 µM), 1.15; in assay [1] (first compound 0.2 µM), 1.21; in assay [1] (first compound 0.6325 µM), 1; in assay [1] (first compound 2 µM), 0.764; in assay [2] (first compound 0.02 µM) it was 0.944. The relative viability in assay [2] (first compound 0.06325 µM) was determined as 1; in assay [2] (first compound 0.2 µM), 0.79; in assay [2] (first compound 0.6325 µM) it was 0.713; in assay [2] (first compound 2 µM), 0.559; in the assay with SGI-1776 + OSI-027 (first compound 0.08 µM), 0.592; with SGI-1776 + OSI-027 (first compound 0.8 µM), 0.52. Moreover, the relative viability turned out to be 0.507 in the assay with SGI-1776 + OSI-027 (first compound 2.53 µM); 0.305 with SGI-1776 + OSI-027 (first compound 8 µM); 0.912 in the assay with SGI-1776 + AZD7762 (first compound 0.08 µM); 1.08 with SGI-1776 + AZD7762 (first compound 0.8 µM); 0.831 with SGI-1776 + AZD7762 (first compound 2.53 µM); 0.828 in the assay with SGI-1776 + AZD7762 (first compound 8 µM).
With SW 900, the relative viability in assay [1] (first compound 0.02 µM) was 0.52; in assay [1] (first compound 0.06325 µM) it was 0.555; in assay [1] (first compound 0.2 µM) it was 0.525; in assay [1] (first compound 0.6325 µM) it was 0.548; in assay [1] (first compound 2 µM) it was 0.345; in assay [2] (first compound 0.02 µM), 0.54. Moreover, the relative viability worked out at 0.538 in assay [2] (first compound 0.06325 µM); 0.613 in assay [2] (first compound 0.2 µM); 0.518 in assay [2] (first compound 0.6325 µM); 0.448 in assay [2] (first compound 2 µM); 0.56 with SGI-1776 + OSI-027 (first compound 0.08 µM); 0.689 with SGI-1776 + OSI-027 (first compound 0.8 µM). Besides, the relative viability with SGI-1776 + OSI-027 (first compound 2.53 µM) was determined as 0.564; with SGI-1776 + OSI-027 (first compound 8 µM) it was 0.399; with SGI-1776 + AZD7762 (first compound 0.08 µM), 0.852; in the assay with SGI-1776 + AZD7762 (first compound 0.8 µM), 0.745; with SGI-1776 + AZD7762 (first compound 2.53 µM) it was 0.676; with SGI-1776 + AZD7762 (first compound 8 µM) it was 0.568.
